Here are results for 4 compounds from patent publication US20230146870A1, “METHOD TO QUANTIFY AFFINITY AND SELECTIVITY OF SMALL MOLECULES FOR PROTEINS IN LIVING CELLS” (Ohio State Innovation Foundation, priority 2021, published 2023).

A word on the Ki: it is a measure of affinity in units of concentration, obtained from inhibition or displacement. Broadly, the Kd is the concentration at which binding is half-saturated.

Several values for one entry are separate records, joined by “and”; a condition that tells them apart may be missing. Equal values may be shown once. Read-outs that look alike come from different tables or passages of the source.

For data set [1] the following is noted: cited from earlier work.
The subject of data set [2] is Taxol binding site in living cells. Conditions: previously reported; read-out: Ki by confocal microscopy; cited from earlier work.
Data set [3] relates to microtubules (taxane binding site) in living HeLa cells. Briefly: Competition binding assay with PB-GABA-Taxol in living HeLa cells (cellular Ki). Conditions: for Ki: read-out: cellular Ki, PB-GABA-Taxol 1.5 μM, verapamil 100 μM, 37° C., 4% FBS, 3 h.
Method: In this assay the cellular Kd was measured by varying the concentration of the fluorescent probe added to cells at equilibrium as established by kinetic assays of probe uptake. Total binding of this probe to specific and non-specific sites in cells in the presence of the efflux inhibitor verapamil was determined by flow cytometry. Non-specific binding was quantified separately by addition of excess paclitaxel with the probe under the same conditions. Subtraction of the linear non-specific binding contribution from the total binding curve was used analyze specific binding of the probe to tubulin of microtubules. Measurement of this cellular dissociation constant under equilibrium conditions further allowed conversion of the half-maximal inhibitory concentration (IC50) of unlabeled compounds into cellular inhibitory constants using an adaptation of the Cheng-Prusoff equation^44 for competitive modulators (Ki) or the allosteric equation^45 for non-competitive modulators (Kb and the cooperativity factor α) as implemented by GraphPad Prism.
For data set [4], the target named is crosslinked / purified microtubules. The following applies: previously reported; read-out: biochemical Ki for microtubules; cited from earlier work.
Data set [5] deals with microtubule network of HeLa cells (mScarlet-α-Tubulin). The experiment in a line: Confocal microscopy of HeLa cells transfected with mScarlet-α-Tubulin. It is filed as cell-based. Conditions: 1 h at 37° C. How it is done: (FIG. 28C) Characterization of fluorescent microtubule phenotypes in HeLa cells transiently transfected with mScarlet-a-Tubulin and treated with the microtubule modulators (1 h at 37° C.). […] Scale bars=10 μm.
Cells were washed with PBS before treatment with PB-GABA-Taxol (100 nM) and (±)-verapamil hydrochloride (100 μM), with or without paclitaxel (10 μM) as a competitor, in phenol red-free DMEM supplemented with 10% FBS. Cells were incubated at 37° C. for 3 h prior to imaging by confocal microscopy. For experiments using HeLa cells transfected with mScarlet-α-tubulin, transient transfection was performed using a Invitrogen Lipofectamine 3000 Transfection kit (Thermo, L3000-075). Transfection used a 1× dose of lipid in OptiMEM (4% FBS) for 18 hours before washing of cells with PBS and treatment with the microtubule modulator for 1 h at 37° C.

The target in a further data set is albumin (Homo sapiens, UniProt P02768). Conditions: cited from earlier work.
Chain of albumin (P02768 25-609, species assumed): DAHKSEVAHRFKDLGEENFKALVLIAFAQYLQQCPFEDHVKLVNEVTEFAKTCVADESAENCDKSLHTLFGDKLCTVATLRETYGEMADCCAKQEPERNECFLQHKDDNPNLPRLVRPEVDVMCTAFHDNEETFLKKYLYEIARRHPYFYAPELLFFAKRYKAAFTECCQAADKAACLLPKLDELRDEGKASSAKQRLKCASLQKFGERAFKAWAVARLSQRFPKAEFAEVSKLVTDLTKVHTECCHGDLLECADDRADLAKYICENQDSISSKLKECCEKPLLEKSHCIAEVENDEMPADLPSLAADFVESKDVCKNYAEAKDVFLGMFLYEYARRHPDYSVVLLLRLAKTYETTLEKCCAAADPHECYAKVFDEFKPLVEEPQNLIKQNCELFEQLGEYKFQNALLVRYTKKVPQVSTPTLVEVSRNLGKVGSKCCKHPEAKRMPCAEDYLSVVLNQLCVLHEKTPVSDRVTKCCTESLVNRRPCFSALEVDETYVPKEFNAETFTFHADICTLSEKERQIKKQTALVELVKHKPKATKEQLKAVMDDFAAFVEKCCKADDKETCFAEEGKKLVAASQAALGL
Data set [6] addresses PKC 11 (C1B domain, tyrosine at the 22 position). Conditions: phosphatidyl serine present, read-out: binding affinity (Kd) for DAG, cited from earlier work.

With `O=C(O)c1cc2cc(F)c(O)c(F)c2oc1=O` [Pacific Blue™], the “phenol pKa” value in data set [1] is 3.7.

For `C/C(=C\c1csc(C)n1)[C@@H]1C[C@@H]2O[C@]2(C)CCC[C@H](C)[C@H](O)[C@@H](C)C(=O)C(C)(C)[C@@H](O)CC(=O)N1` [ixabepilone], the Ki is 7.6 ± 1.6 nM in data set [2] and 10 nM in data set [3].

In the case of `CC(=O)O[C@H]1C(=O)[C@@]2(C)[C@H]([C@H](OC(=O)c3ccccc3)[C@]3(O)C[C@H](OC(=O)[C@H](O)[C@@H](NC(=O)c4ccccc4)c4ccccc4)C(C)=C1C3(C)C)[C@]1(OC(C)=O)CO[C@@H]1C[C@@H]2O` [paclitaxel], the Ki is 19 nM and 27 nM and 31 nM in data set [4]; 22 nM in data set [3]. Further, the “decrease of apparent affinity vs incubation for 3 h or 4 h” value in data set [3] (incubation 1 h) was 3 fold; in data set [3] (incubation 2 h) it was 2 fold. The “underestimation of cellular Ki” value in data set [3] (probe concentration 3 μM) is reported as 12 fold. The “decrease of apparent affinity (cellular Ki) by ligand depletion” value in data set [3] (σ=15% (150 nM β-tubulin/well)) is 2.3 fold; in data set [3] (σ=30% (300 nM β-tubulin/well)) it was 4.7 fold. Moreover, in data set [5], the fluorescent microtubule phenotype entry is “increased numbers of microtubule fibers”. Also, the Kd on albumin was 120 nM.

As to diacylglycerol [DAG], the Kd in data set [6] (tyrosine at the 22 position) was 780000 nM; in data set [6] (tyrosine changed into tryptophan), 24000 nM.
